pKi: −log10 of the molar value. “And” between values parts separate entries of the source, which are not always exact repeats. Equal entries are not always repeated. Where two headings read alike, the source gives them in different places.
Columns and labels:
[1] = target: T1, human recombinant adrenergic α2B receptor (Homo sapiens, UniProt P18089); assay: Radioligand binding, adrenergic α2B ([3H]Rauwolscine); details: for Percentage inhibition of ligand binding, Adrenergic α2B (0.1 μM) / inhibition at 0.03 µM / inhibition at 0.1 µM / Percentage inhibition of ligand binding, Adrenergic α2B / Percentage inhibition of ligand binding, Adrenergic α2B (0.03 μM): [3H]Rauwolscine; for pKi: read-out: Ki α2B
T1 construct: expressed in transfected cells; host or cells: CHO-K1
T1 sequence (P18089 1-450): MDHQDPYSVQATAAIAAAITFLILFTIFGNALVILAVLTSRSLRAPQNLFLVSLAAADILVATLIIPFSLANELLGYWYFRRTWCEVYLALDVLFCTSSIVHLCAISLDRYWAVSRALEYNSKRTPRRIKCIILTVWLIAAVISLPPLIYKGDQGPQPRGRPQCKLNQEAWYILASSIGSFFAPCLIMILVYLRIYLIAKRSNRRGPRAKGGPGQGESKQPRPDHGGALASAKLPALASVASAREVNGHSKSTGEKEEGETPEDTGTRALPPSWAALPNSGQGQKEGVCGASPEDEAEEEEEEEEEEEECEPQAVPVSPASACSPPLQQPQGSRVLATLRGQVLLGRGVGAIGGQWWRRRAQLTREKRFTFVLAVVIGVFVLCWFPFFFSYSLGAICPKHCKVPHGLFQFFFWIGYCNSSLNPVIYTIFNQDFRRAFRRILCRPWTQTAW
Procedure, shortened: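 Receptor expressed in CHO-K1 cells, assayed in 50 mM Tris-HCl pH 7.4 with 12.5 mM MgCl2, 1 mM EDTA and 0.2% BSA. Compounds were incubated with 2.5 nM [3H]Rauwolscine for 60 min at 25° C; 10 μM Prazosin defined non-specific binding. Filter counting gave percent inhibition of specific binding.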

[2] = target: T2, human recombinant adrenergic α2A receptor (Homo sapiens, UniProt P08913); assay: Radioligand binding, adrenergic α2A ([3H]MK-912); details: for Percentage inhibition of ligand binding, Adrenergic α2A (0.1 μM) / Percentage inhibition of ligand binding, Adrenergic α2A: 0.1 µM
T2 construct: expressed in transfected cells; host or cells: insect Sf9 cells
T2 sequence (P08913 1-465): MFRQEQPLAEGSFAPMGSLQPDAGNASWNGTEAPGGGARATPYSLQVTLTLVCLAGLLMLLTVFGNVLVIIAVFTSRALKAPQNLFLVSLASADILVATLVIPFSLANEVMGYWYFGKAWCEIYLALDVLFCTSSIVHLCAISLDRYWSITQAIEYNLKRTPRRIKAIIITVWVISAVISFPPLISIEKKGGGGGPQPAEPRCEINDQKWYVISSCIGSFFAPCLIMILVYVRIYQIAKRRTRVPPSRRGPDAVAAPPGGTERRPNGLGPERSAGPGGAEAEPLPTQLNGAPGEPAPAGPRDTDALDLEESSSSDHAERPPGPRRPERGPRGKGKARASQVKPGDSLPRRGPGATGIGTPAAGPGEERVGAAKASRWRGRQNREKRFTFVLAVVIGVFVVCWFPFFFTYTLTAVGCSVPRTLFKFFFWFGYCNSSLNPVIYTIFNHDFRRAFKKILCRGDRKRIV
Procedure, shortened: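 Receptor expressed in insect Sf9 cells, assayed in 50 mM Tris-HCl pH 7.4 with 12.5 mM MgCl2 and 2 mM EDTA. Compounds incubated with 1 nM [3H]MK-912 for 60 min at 25 °C; nonspecific binding defined with 10 μM WB-4101. Filter-bound radioactivity counted; values are percent inhibition of specific binding.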

[3] = target: T3, human recombinant adrenergic α1D receptor (Homo sapiens, UniProt P25100); assay: Radioligand binding, adrenergic α1D ([3H]Prazosin); details: [3H]Prazosin
T3 construct: expressed in transfected cells; host or cells: HEK-293
T3 sequence (P25100 1-572): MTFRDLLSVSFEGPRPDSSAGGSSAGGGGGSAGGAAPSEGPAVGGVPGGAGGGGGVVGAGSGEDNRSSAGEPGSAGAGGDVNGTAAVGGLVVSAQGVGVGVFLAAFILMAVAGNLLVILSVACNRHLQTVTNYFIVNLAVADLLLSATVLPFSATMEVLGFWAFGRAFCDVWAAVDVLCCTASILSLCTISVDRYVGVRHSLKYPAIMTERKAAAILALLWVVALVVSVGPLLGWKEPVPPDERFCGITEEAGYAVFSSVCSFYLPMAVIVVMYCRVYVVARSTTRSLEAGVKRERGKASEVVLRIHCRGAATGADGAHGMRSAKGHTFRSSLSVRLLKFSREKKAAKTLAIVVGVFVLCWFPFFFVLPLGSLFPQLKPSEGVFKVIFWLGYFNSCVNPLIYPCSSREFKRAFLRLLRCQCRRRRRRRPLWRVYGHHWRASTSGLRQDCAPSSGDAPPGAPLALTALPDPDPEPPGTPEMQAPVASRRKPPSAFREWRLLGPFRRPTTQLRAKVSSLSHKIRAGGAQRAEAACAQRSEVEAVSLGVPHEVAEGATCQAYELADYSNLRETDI
Description: Compounds were incubated with 0.6 nM [3H]Prazosin for 60 min at 25° C. Non-specific binding was estimated in the presence of 10 μM phentolamine. Receptor proteins were filtered and washed, the filters were then counted to determine [3H]Prazosin specifically bound. […] Biochemical assay results are presented as the percent inhibition of specific binding in Table B1.

[4] = compound at 0.1 μM, repeat datapoints each shown, 0.1 µM
[5] = read-out: Percentage inhibition of ligand binding, Adrenergic α2B (0.03 μM), compound at 0.03 μM, repeat datapoints each shown
[6] = read-out: Percentage inhibition of ligand binding, Adrenergic α2B (0.1 μM), compound at 0.1 μM, repeat datapoints each shown
[7] = compound at 0.1 μM, [3H]MK-912, repeat datapoints each shown
[8] = read-out: Percentage inhibition of ligand binding, Adrenergic α2A (0.1 μM), compound at 0.1 μM, [3H]MK-912, repeat datapoints each shown
[9] = compound at 0.03 μM, repeat assays, each datapoint shown, 0.03 µM
[10] = compound at 0.03 μM, [3H]MK-912, repeat assays, each datapoint shown, read-out: Percentage inhibition of ligand binding, Adrenergic α2A
[11] = compound at 0.1 μM, [3H]MK-912, repeat assays, each datapoint shown
[12] = compound at 0.1 μM, repeat assays, each datapoint shown, read-out: Percentage inhibition of ligand binding, Adrenergic α1D
[13] = compound at 0.03 μM, repeat assays, each datapoint shown, read-out: Percentage inhibition of ligand binding, Adrenergic α2B
[14] = compound at 0.1 μM, repeat assays, each datapoint shown, read-out: Percentage inhibition of ligand binding, Adrenergic α2B
[15] = compound at 0.1 μM, [3H]MK-912, repeat assays, each datapoint shown, read-out: Percentage inhibition of ligand binding, Adrenergic α2A
[16] = compound at 0.03 μM, repeat datapoints each shown, 0.03 µM

SMILES: CN1CCc2c(c3cccc(Cl)c3n2CCc2ccccc2)C1 [compound 216]
- Percentage inhibition of ligand binding, Adrenergic α2B (0.1 μM) [1, 4]: 106%
- pKi [1]: 9.02
- inhibition at 0.03 µM [1, 5]: 98%
- inhibition at 0.1 µM [1, 6]: 103%
- pKi [2]: 8.02
- Percentage inhibition of ligand binding, Adrenergic α2A (0.1 μM) [2, 7]: 76% and 98%
- inhibition at 0.03 µM ([2]; read-out: Percentage inhibition of ligand binding, Adrenergic α2A (0.03 μM), compound at 0.03 μM, [3H]MK-912, repeat datapoints each shown): 58%
- inhibition at 0.03 µM ([3]; read-out: Percentage inhibition of ligand binding, Adrenergic α1D (0.03 μM), compound at 0.03 μM, repeat datapoints each shown): 38%

SMILES: CN1CCc2c(c3ccccc3n2CCc2ccccc2)C1 [compound 182, 2,3,4,5-Tetrahydro-2-methyl-5-phenethyl-1H-pyrido[4,3-b]indole]
- inhibition at 0.03 µM [1, 5]: 83%
- inhibition at 0.1 µM [1, 6]: 91%
- inhibition at 0.1 µM [2, 8]: 69%
- inhibition at 0.1 µM ([3]; read-out: Percentage inhibition of ligand binding, Adrenergic α1D (0.1 μM), compound at 0.1 μM, repeat datapoints each shown): 16%

SMILES: Cc1ccc2c(c1)c1c(n2CC(O)c2ccncc2)CCN(C)C1 (single isomer, unassigned) [3b]
- Percentage inhibition of ligand binding, Adrenergic α2B [1, 9]: 100% and 101% and 102% and 112%
- pKi [1]: 9.59 and 9.55 and 9.34
- pKi [2]: 6.86 and 6.78 and 6.65
- inhibition at 0.03 µM [2, 10]: 1%
- Percentage inhibition of ligand binding, Adrenergic α2A [2, 11]: 21% and 22% and 23% and 25%
- inhibition at 0.1 µM [3, 12]: 18%

SMILES: Cc1ccc2c(c1)c1c(n2CC(C)(O)c2cccnc2)CCN(C)C1 (stereo not shown) [compound 5, 1-(1,2,3,4-tetrahydro-2,8-dimethylpyrido[4,3-b]indol-5-yl)-2-(pyridin-3-yl)propan-2-ol]
- inhibition at 0.03 µM [1, 13]: 100%
- inhibition at 0.1 µM [1, 14]: 96%
- inhibition at 0.1 µM [2, 15]: 13%
- inhibition at 0.1 µM [3, 12]: 4%

SMILES: Cc1ccc2c(c1)c1c(n2CC(O)c2ccc(C(N)=O)nc2)CCN(C)C1 (single isomer, unassigned) [144b, 5-[2-(2,8-dimethyl-1,2,3,4-tetrahydro-pyrido[4,3-b]indol-5-yl)-1-hydroxy-ethyl]-pyridine-2-carboxylic acid amide]
- Percentage inhibition of ligand binding, Adrenergic α2B (0.03 μM) [1, 16]: 85% and 87%
- Percentage inhibition of ligand binding, Adrenergic α2B (0.1 μM) [1, 4]: 102%
- pKi [1]: 8.77 and 8.63
- inhibition at 0.03 µM [1, 5]: 83%
- inhibition at 0.1 µM [1, 6]: 100%
- Percentage inhibition of ligand binding, Adrenergic α2A (0.1 μM) [2, 7]: 4%
- inhibition at 0.1 µM [2, 8]: 3%

SMILES: CN1CCc2c(n(CC(O)c3ccncc3)c3ccc(Cl)cc23)C1 (single isomer, unassigned) [41a]
- Percentage inhibition of ligand binding, Adrenergic α2B [1, 9]: 14%
- Percentage inhibition of ligand binding, Adrenergic α2A [2, 11]: −9%

SMILES: Cc1ccc2c(c1)c1c(n2CC(O)c2ccncc2)CCN(C)CC1 (single isomer, unassigned) [13b, 2-(3,9-dimethyl-2,3,4,5-tetrahydroazepino[4,5-b]indol-6(1H)-yl)-1-(pyridin-4-yl)ethanol]
- Percentage inhibition of ligand binding, Adrenergic α2B [1, 9]: 102%
- inhibition at 0.03 µM [1, 13]: 100%
- pKi [1]: 9.21
- pKi [2]: 6.70

SMILES: Cc1ccc2c(c1)c1c(n2CC(O)c2ccncc2)CCNC1 (single isomer, unassigned) [39a, 2-(8-methyl-1,2,3,4-tetrahydro-pyrido[4,3-b]indol-5-yl)-1-pyridin-4-yl-ethanol]
- inhibition at 0.03 µM [1, 13]: 86%
- inhibition at 0.1 µM [1, 14]: 92%
- pKi [1]: 8.60
- pKi [2]: 5.78
- inhibition at 0.03 µM [2, 10]: 5%
- Percentage inhibition of ligand binding, Adrenergic α2A [2, 11]: 15%
- inhibition at 0.1 µM [2, 15]: 13%

SMILES: Cc1ccc2c(c1)c1c(n2CC(O)c2ccncc2)CCN2CCCC12 (single isomer, unassigned) [129d]
- pKi [1]: 9.46
- pKi [2]: 8.73
- Percentage inhibition of ligand binding, Adrenergic α2A (0.03 μM) ([2]; compound at 0.03 μM, [3H]MK-912, repeat datapoints each shown, 0.03 µM): 87%

SMILES: Cc1ccc2c(c1)c1c(n2CC(C)(O)c2cnccn2)CCN2CCCC12 (single isomer, unassigned) [176a]
- Percentage inhibition of ligand binding, Adrenergic α2B (0.03 μM) [1, 16]: 93% and 98% and 100%
- pKi [1]: 9.28
- inhibition at 0.1 µM [1, 6]: 105%
- Percentage inhibition of ligand binding, Adrenergic α2A (0.1 μM) [2, 7]: 32%

SMILES: CN1CCc2c(c3cc(Cl)ccc3n2CC(O)c2ccncc2)C1 (single isomer, unassigned) [4a]
- Percentage inhibition of ligand binding, Adrenergic α2B [1, 9]: 103%
- inhibition at 0.03 µM [1, 13]: 99%
- inhibition at 0.1 µM [1, 14]: 104%
- pKi [1]: 9.19
- pKi [2]: 6.75
- inhibition at 0.03 µM [2, 10]: 5%
- Percentage inhibition of ligand binding, Adrenergic α2A [2, 11]: 24%
- inhibition at 0.1 µM [2, 15]: 19%

SMILES: Cc1cnc2c(c1)c1c(n2CC(C)(O)c2cccnc2)CCN2CCCC12 (single isomer, unassigned) [26a]
- Percentage inhibition of ligand binding, Adrenergic α2B [1, 9]: 101% and 107%
- pKi [1]: 9.25
- pKi [2]: 6.95
- inhibition at 0.03 µM [2, 10]: 14%
- Percentage inhibition of ligand binding, Adrenergic α2A [2, 11]: 23% and 33%

SMILES: Cc1ccc2c(c1)c1c(n2CC(N)c2ccncc2)CCN(C)C1 (single isomer, unassigned) [27a, 2-(1,2,3,4-tetrahydro-2,8-dimethylpyrido[4,3-b]indol-5-yl)-1-(pyridin-4-yl)ethanamine]
- Percentage inhibition of ligand binding, Adrenergic α2B [1, 9]: 76% and 83%
- Percentage inhibition of ligand binding, Adrenergic α2B ([1]; compound at 0.1 μM, repeat assays, each datapoint shown, 0.1 µM): 94%
- pKi [1]: 8.36
- pKi [2]: 5.96
- Percentage inhibition of ligand binding, Adrenergic α2A [2, 11]: 2% and 11%
